Reference: patent publication US10047122B2, “Peptide and peptide mimetic binding antagonists of polo-like kinase 1 polo box domain and methods of use” (The United States of America, as represented by the …, priority 2013, dated 2018)
Numbered stars: 1 amine (or outer) side, 2 acyl side, 3 side chain; on linkers, the order of the positions; unused ones are H or OH. Square brackets hold non-standard residues; d marks the D form. Peptide text beside a SMILES is read from it. X1 = C[C@@H](OP(=O)(OCOC(=O)C(C)(C)C)OCOC(=O)C(C)(C)C)[C@H](N[*:1])C(=O)[*:2]; X2 = C[C@@H](CP(=O)(OCOC(=O)C(C)(C)C)OCOC(=O)C(C)(C)C)[C@H](N[*:1])C(=O)[*:2]; His(π-(CH2)8Ph) = N[C@@H](Cc1cncn1CCCCCCCCc1ccccc1)C(=O)O

Tests used:
[1] = tested on: Porcine Liver Esterase; assay: PLE hydrolysis experiment (enzymatic deprotection of POM-protected peptides); type: in vitro ADME; details: pig, 200 μM peptide, pH 7.4, 37° C.
Procedure: Hydrolysis assays were run on five POM-protected peptides (see below):
(§1) There are three types of hydrolysis experiment performed in these peptides.
Type 1: 200 μM peptide with Porcine Liver Esterase (58 units, according the protocol presented in Srivastva, D. N.; Farquhar, D. Bioorg. Chem. 1984, 12, 118).
PLE hydrolysis experiment. 0.05M potassium phosphate buffer (pH 7.4) was placed in centrifuge tube. A solution of selected peptide in methanol was added to the buffer. Final concentration of the peptide was 200 μM, MeOH was less than 1% in solution. Take 1 mL of the above solution, then added Pig liver esterase (57.6 units). The reaction mixture was then incubated at 37° C. by shaking. At different time point, certain amount (50 μL) of reaction mixture was taken and placed in a separate Eppendorf tube containing 1 equiv. volume MeCN (50 μL). After work-up, the hydrolysis product was monitored by LC-MS.

[2] = Culture medium hydrolysis experiment; type: in vitro ADME; details: for half-life at 1 μM: 1 μM peptide in culture medium
Procedure: as §1
Type 2: 1 μM peptide in culture medium and 200 μM peptide in culture medium.
Culture medium hydrolysis experiment. Culture medium was placed in centrifuge tube. A solution of selected peptide in methanol was added to the culture medium. Final concentration of the peptide was 1 μM or 200 μM, MeOH was less than 1% in solution. The reaction mixture was then incubated at 37° C. by shaking. At different time point, certain amount (50 μL) of reaction mixture was taken and placed in a separate Eppendorf tube containing 1 equiv. volume MeCN (50 μL). After work-up, the hydrolysis product was monitored by LC-MS.

[3] = Cell lysate hydrolysis experiment; type: in vitro ADME; details: 1 μM peptide in cell lysate, 37° C.; read-out: Half-life of peptides in cell lysate
Procedure: as §1
Type 3: 1 μM peptide in cell lysate.
Cell lysate hydrolysis experiment. Cell lysate was placed in 96-well plate. A solution of selected peptide in DMSO was added to the cell lysate. Final concentration of the peptide was 1 μM, DMSO was less than 1% in solution. The reaction mixture was then incubated at 37° C. by shaking. At different time point, 1 equiv. by volume of MeCN was added to well to quench the reaction. After work-up, the hydrolysis product was monitored by LC-MS.

[4] = tested on: HeLa cells; type: cell-based
Procedure: Cell culture, analysis of the cell proliferation and aberrant mitotic population, and indirect immunofluorescence microscopy: HeLa cervical carcinoma cell line CCL2, 293A and 293T cells were cultured as recommended by the American Type Culture Collection (Manassas, Va.), were cultured as recommended by American Type Culture Collection (Manassas, Va.). To prepare mitotic 293A cells expressing HA-EGFP-Plk1, cells were infected with adenovirus expressing HA-EGFP-Plk1 and arrested with 200 ng/ml of nocodazole for 16 h. To analyze the effect of the indicated compounds in cultured cells, logarithmically growing HeLa cells were treated with 200 μM of the indicated compounds for 24 h (a sufficient amount of time to enrich mitotically-arrested cells), treated with Hoechst 33342 for […], and then fixed with 4% paraformaldehyde.
Cell-based growth inhibition assays were performed.

[5] = target: T1, Plk1 PBD (cellular lysates expressing HA-EGFP-Plk1) (Homo sapiens, UniProt P53350); assay: ELISA-based PBD-binding inhibition assay; details: immobilized biotinylated p-T78 peptide, lysates with full-length Plk1
T1 construct: cell lysates containing full-length Plk1 were incubated with test peptides; expressed in transfected cells; host or cells: 293A cells infected with adenovirus expressing HA-EGFP-Plk1, arrested with nocodazole
T1 sequence (P53350 whole entry): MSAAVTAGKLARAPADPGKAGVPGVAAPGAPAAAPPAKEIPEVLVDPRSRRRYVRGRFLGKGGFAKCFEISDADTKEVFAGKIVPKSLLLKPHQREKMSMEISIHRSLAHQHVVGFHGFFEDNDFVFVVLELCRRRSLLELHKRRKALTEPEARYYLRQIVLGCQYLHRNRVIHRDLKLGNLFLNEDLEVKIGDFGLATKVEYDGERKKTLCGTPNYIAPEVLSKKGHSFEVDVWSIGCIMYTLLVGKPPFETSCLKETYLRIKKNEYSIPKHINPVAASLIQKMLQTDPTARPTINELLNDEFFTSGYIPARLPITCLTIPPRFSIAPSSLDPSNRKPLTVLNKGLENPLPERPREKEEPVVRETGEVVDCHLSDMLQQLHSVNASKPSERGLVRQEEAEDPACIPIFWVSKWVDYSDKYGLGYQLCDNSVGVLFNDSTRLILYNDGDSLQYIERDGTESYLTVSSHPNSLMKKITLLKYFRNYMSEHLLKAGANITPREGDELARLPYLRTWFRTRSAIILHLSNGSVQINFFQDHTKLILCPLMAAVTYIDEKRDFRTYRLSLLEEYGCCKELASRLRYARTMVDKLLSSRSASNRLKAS
Procedure: An ELISA-based PBD-binding inhibition assay was carried out using an immobilized biotinylated 9-mer p-T78 peptide {Biotin-C—(CH2)6-(CH2)6-DPPLHSpTAI-NH2} and the cellular lysates expressing HA-EGFP-Plk1.
A biotinylated p-T78 peptide was first diluted with 1× coating solution (KPL Inc., Gaithersburg, Md.) to the final concentration of 0.3 μM, and then 100 μl of the resulting solution was immobilized onto a 96-well streptavidin-coated plate (Nalgene Nunc, Rochester, N.Y.). The wells were washed once with PBS plus 0.05% Tween20 (PBST), and incubated with 200 μl of PBS plus 1% BSA (blocking buffer) for 1 h to prevent non-specific binding. […] Following the incubation, ELISA plates were washed 4 times with PBST. To detect bound HA-EGFP-Plk1, the plates were probed for 2 h with 100 μl/well of anti-HA antibody at a concentration of 0.5 μg/ml in blocking buffer and then washed 5 times. The plates were further probed for 1 h with 100 μl/well of HRP-conjugated secondary antibody (GE Healthcare, Piscataway, N.J.) at a 1:1,000 dilution in blocking buffer. The plates were washed 5 times with PBST and incubated with 100 μl/well of 3,3′,5,5′-tetramethylbenzidine (TMB) solution (Sigma, St. Louis, Mo.) as a substrate until a desired absorbance was reached. […] The optical density (O.D.) was measured at 450 nm by using an ELISA plate reader (Molecular Devices, Sunnyvale, Calif.).

[6] = 37° C., read-out: Half-life of peptides in culture medium

| half-life at 200 μM ([2]; 200 μM peptide in culture medium, 37° C., read-out: Half-life of peptides in culture medium) [h] | Structure (SMILES) | half-life at 200 μM [1] [h] | half-life at 1 μM [2, 6] [h] | half-life at 1 μM [3] [h] | IC50 [4] [µM] | IC50 [5] [µM] | hydrolysis product detected after 24 h incubation ([2]; 200 μM peptide in culture medium, 24 h) |
| --- | --- | --- | --- | --- | --- | --- | --- |
|  | CC(=O)N1CCC[C@H]1C(=O)N[C@@H](CC(C)C)C(=O)N[C@@H](Cc1c[nH]cn1)C(=O)N[C@@H](CO)C(=O)N[C@H](C(N)=O)[C@@H](C)OP(=O)(OCOC(=O)C(C)(C)C)OCOC(=O)C(C)(C)C [Compound A1, Ac-Pro-Leu-His-Ser-Thr(PO2POM2)-amide] (Ac-PLHS[X1]-NH2) | 0.113 |  |  |  |  |  |
|  | CC(=O)N1CCC[C@H]1C(=O)N[C@@H](CC(C)C)C(=O)N[C@@H](Cc1c[nH]cn1)C(=O)N[C@@H](CO)C(=O)N[C@H](C(N)=O)[C@@H](C)CP(=O)(OCOC(=O)C(C)(C)C)OCOC(=O)C(C)(C)C [Compound A3] (Ac-PLHS[X2]-NH2) | 0.085 |  |  |  |  |  |
| 7.43 | CC(=O)N1CCC[C@H]1C(=O)N[C@@H](CC(C)C)C(=O)N[C@@H](Cc1cncn1CCCCCCCCc1ccccc1)C(=O)N[C@@H](CO)C(=O)N[C@H](C(N)=O)[C@@H](C)OP(=O)(OCOC(=O)C(C)(C)C)OCOC(=O)C(C)(C)C [Compound A5] (Ac-PL[His(π-(CH2)8Ph)]S[X1]-NH2) | 1.9 | 0.537 | 2.32 |  |  |  |
|  | CC(=O)N1CCC[C@H]1C(=O)N[C@@H](CC(C)C)C(=O)N[C@@H](Cc1c[n+](CCO)cn1CCCCCCCCc1ccccc1)C(=O)N[C@@H](CO)C(=O)N[C@H](C(N)=O)[C@@H](C)OP(=O)(O)OCOC(=O)C(C)(C)C [Compound A10] | 4 | 6.87 | 1.48 | 57 | 0.0093 | ^a<5% hydrolysis product could be detected after 24 h incubation. |
